The values below come from PubChem BioAssay (NCI).

The structures appear in SMILES notation. Where “and” joins values, the source holds several entries; their conditions need not be identical. Equal values may be shown once.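 Five compound concentrations were applied to cells in 96-well plates for 48 hours; endpoints were derived by simple linear interpolation of the resulting dose-response curve. GI50 is the concentration that inhibits growth by half. TGI: concentration producing complete growth inhibition.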

Among the test systems are M19-MEL melanoma; DLD-1 colon; DMS 114 small cell lung; LXFL 529 NSCLC; SNB-78 CNS; RXF-631 renal; HOP-18 NSCLC; MDA-N; T-47D breast; P388/ADR leukemia; SN12K1 renal; P388 leukemia.
Assay in all cases: NCI tumour cell line growth inhibition, 48 h

As for `COc1c2c(c(O)c3c4c(c(C)cc13)C1OC3(C(OC)OC5CC(C)(O)C(OC6CC(C)(O)C(O)C(C)O6)C(C)O5)OC1C(OC)(O4)C31CO1)C(=O)C(O)CC2OC1CC(C)(O)C(OC(C)=O)C(C)O1` (stereo not drawn), the TGI in the assay with M19-MEL melanoma was below 0.01 µM; in the assay with DLD-1 colon it was 4.17 µM; in the assay on DMS 114 small cell lung, below 0.01 µM; in the assay on LXFL 529 NSCLC, 0.0889 µM; in the assay on SNB-78 CNS, below 0.0448 µM; with RXF-631 renal, 4.48 µM.

In the case of `c1ccc(N2CCN(CCN3CCc4c([nH]c5ccccc45)C3c3cccnc3)CC2)cc1` (stereo not drawn), the TGI in the assay with M19-MEL melanoma, in the assay with HOP-18 NSCLC, in the assay with DLD-1 colon, in the assay with DMS 114 small cell lung, in the assay on LXFL 529 NSCLC and in the assay on SNB-78 CNS was above 100 µM throughout. For the same molecule, in the assay on RXF-631 renal, the TGI is above 100 µM.

Regarding `COc1ccccc1/C=C(\NC(=O)c1ccccc1)c1nc2ccccc2[nH]1`, the TGI is above 100 µM in the assay with M19-MEL melanoma; above 100 µM in the assay on HOP-18 NSCLC; above 100 µM in the assay on DLD-1 colon; above 100 µM in the assay with DMS 114 small cell lung; 96.9 µM in the assay with LXFL 529 NSCLC; above 100 µM in the assay with SNB-78 CNS. For the same molecule, in the assay with RXF-631 renal, the TGI is above 100 µM.

As to `COC(=O)C1=C(O)c2cc(OC)c(OC)c(OC)c2C(c2ccc3c(c2)OCO3)[C@@H]1C(=O)OC` (stereo partly drawn), the TGI is above 100 µM in the assay on HOP-18 NSCLC; above 100 µM in the assay on DLD-1 colon; 5.96 µM with DMS 114 small cell lung; above 100 µM with LXFL 529 NSCLC; above 100 µM with SNB-78 CNS; above 100 µM in the assay on RXF-631 renal.

Take `COC(OC)c1cccnc1C`: the TGI in the assay on M19-MEL melanoma, with HOP-18 NSCLC, with DLD-1 colon, in the assay on DMS 114 small cell lung, with LXFL 529 NSCLC and with SNB-78 CNS was above 100 µM in each case. Besides, in the assay on RXF-631 renal, the TGI was above 100 µM.

`CCOC(=N)CC(=O)Nc1ccccc1CC`: the TGI in the assay with M19-MEL melanoma, with HOP-18 NSCLC, in the assay with DLD-1 colon, in the assay with LXFL 529 NSCLC, in the assay with SNB-78 CNS and in the assay on RXF-631 renal was above 100 µM throughout.

As for `O=S1(=O)CCC2=CC(C(F)(F)F)=CC(C(F)(F)F)=CN21`, the TGI in the assay on M19-MEL melanoma was 3.08 µM; with HOP-18 NSCLC, 8.27 µM; in the assay with DLD-1 colon it was 1.77 µM; in the assay on DMS 114 small cell lung it was 3.32 µM; in the assay on LXFL 529 NSCLC, 1.6 µM; with MDA-N it was 35.7 µM. Also, the TGI worked out at 6.49 µM in the assay with SNB-78 CNS, 0.397 µM in the assay with T-47D breast and 3.89 µM in the assay with RXF-631 renal.

With `Cc1c(-c2ccc(-c3ccccc3F)cc2)nc2ccc(F)cc2c1C(=O)O`, the TGI was 153 µM in the assay with M19-MEL melanoma; 192 µM and 182 µM with HOP-18 NSCLC; 60 µM and 125 µM in the assay on P388/ADR leukemia; 70.9 µM with SN12K1 renal; 146 µM and 1040 µM in the assay with DLD-1 colon; 259 µM and 792 µM with T-47D breast. Further, the TGI with P388 leukemia was 89.8 µM and 106 µM. Moreover, the GI50 is 57 µM in the assay with HOP-18 NSCLC; 500 nM in the assay on P388/ADR leukemia; 1580 nM with DLD-1 colon; 979 nM and 762 nM in the assay on MDA-N; 10.2 µM and 79.5 µM with T-47D breast; 500 nM in the assay on P388 leukemia.

As for `C[C@]12CC[C@H](OC(=O)Nc3ccccc3)CC1=CC[C@@H]1C2CC[C@]2(C)/C(=N/OC(=O)Nc3ccccc3)CCC12` (stereo partly drawn), the TGI in the assay with M19-MEL melanoma was above 100 µM; in the assay on HOP-18 NSCLC it was 37.9 µM; in the assay on DMS 114 small cell lung it was above 100 µM; with LXFL 529 NSCLC it was 2.52 µM; with SNB-78 CNS, above 100 µM; in the assay with RXF-631 renal, above 100 µM.

With `O=C(Nc1ccccc1)N1C(c2ccccc2)=N[C@@H](c2ccccc2)[C@@H]1c1ccccc1`, the TGI in the assay with M19-MEL melanoma was 38.7 µM; in the assay with HOP-18 NSCLC it was 50.7 µM; in the assay on DLD-1 colon, 35.6 µM; in the assay with DMS 114 small cell lung, 29.9 µM; in the assay on LXFL 529 NSCLC it was 31.6 µM; in the assay on SNB-78 CNS, above 100 µM. This molecule also gave a TGI in the assay with RXF-631 renal of 79 µM.

For `CNC(=O)NCCCCC(NC(C)=O)C(=O)NCc1ccccc1` (stereo not drawn), the TGI with M19-MEL melanoma, in the assay with DLD-1 colon, in the assay with DMS 114 small cell lung, in the assay with LXFL 529 NSCLC, in the assay on SNB-78 CNS and in the assay on RXF-631 renal was above 100 µM each time.

For `Cn1cnnc1Sc1c([N+](=O)[O-])nc(-c2ccc([N+](=O)[O-])cc2)n1C`, the TGI was 32.3 µM in the assay with M19-MEL melanoma; 31.3 µM with HOP-18 NSCLC; 29.3 µM in the assay with DLD-1 colon; 32.4 µM in the assay with DMS 114 small cell lung; 26.8 µM with LXFL 529 NSCLC; 35.6 µM in the assay with SNB-78 CNS. For the same molecule, the TGI in the assay on RXF-631 renal turned out to be 32.8 µM.

Regarding `CN(C)C(=S)/N=c1\ssc(=Nc2ccccc2)n1-c1ccccc1`, the TGI is above 100 µM in the assay with M19-MEL melanoma; above 100 µM in the assay on HOP-18 NSCLC; above 100 µM in the assay on DLD-1 colon; 29.8 µM with DMS 114 small cell lung; 79.7 µM with SNB-78 CNS; above 100 µM in the assay with RXF-631 renal.

For `Nc1ccc(C(=O)N/C(=C\c2ccc3c(c2)OCO3)c2nc3ccccc3s2)cc1`, the TGI in the assay on M19-MEL melanoma is 32.6 µM; in the assay with DLD-1 colon it was 59.7 µM; with LXFL 529 NSCLC, 22.4 µM; in the assay on SNB-78 CNS it was 30.5 µM; in the assay with RXF-631 renal, 35.1 µM.
